Experimental data as given in patent publication EP0497314A1, “Use of azapirones in attention deficit hyperactivity disorder” (Bristol-Myers Squibb Company, priority 1991, dated 1992).
Structures can show the parent of a compound that is named as a salt. Marks after values point to notes of the source that are not given here.

Assays:
[1] = tested on: fronto-occipital cortex of the cat; experiment: Quantitative EEG, fronto-occipital cat cortex, subcutaneous administration; assay type: in vivo, cats; details: for group percent change in electrical energy from pre-drug control, Δ band / mean change ± S.E. in electrical energy from pre-drug control, Δ band / group percent change in electrical energy from pre-drug control, α band / mean change ± S.E. in electrical energy from pre-drug control, α band / group percent change in electrical energy from pre-drug control, β band / mean change ± S.E. in electrical energy from pre-drug control, β band / group percent change in electrical energy from pre-drug control, γ band / mean change ± S.E. in electrical energy from pre-drug control, γ band / group percent change in electrical energy from pre-drug control, θ band / mean change ± S.E. in electrical energy from pre-drug control, θ band: fronto-occipital cat cortex; for group percent change in electrical energy from pre-drug control, Δ band / mean change ± S.E. in electrical energy from pre-drug control, Δ band: Δ = 0.5-3.5 Hz; for group percent change in electrical energy from pre-drug control, α band / mean change ± S.E. in electrical energy from pre-drug control, α band: α= 7-13 Hz; for group percent change in electrical energy from pre-drug control, β band / mean change ± S.E. in electrical energy from pre-drug control, β band: β= 13-25 Hz; for group percent change in electrical energy from pre-drug control, γ band / mean change ± S.E. in electrical energy from pre-drug control, γ band: γ= 25-40 Hz; for group percent change in electrical energy from pre-drug control, θ band / mean change ± S.E. in electrical energy from pre-drug control, θ band: θ= 3.5-7.0 Hz
Text: This unique combination of activity may render buspirone useful in the treatment of childhood hyperkinesis which has been reported to respond to both selected phenothiazine and stimulant drugs. • (b) Adult mongrel female cats weighing 2.5-4.0 kg were implanted with EEG recording electrodes. Recording sites were as follows: fronto-occipital cortex, basal amygdala and ventral hippocampus.
Animals were individually held in canvas feline restraining bags for EEG recording. The EEG of each brain area was recorded on a separate channel. The instrumentation filtered each channel of EEG and analog data into five distinct frequency bands: Δ=0.5-3.5 Hz, ϑ=3.5-7.0 Hz, α=7-13 Hz, β=13-25 Hz and γ=25-40 Hz. The EEG analyzer then integrated the filtered waveforms and sent pulses to an associated computer at a rate proportional to the electrical energy of each band. Data collecting procedures were essentially the same as reported in Example 1. However, groups of six animals each were used and all drugs were administered subcutaneously in saline solution as their respective salts, but all dosages were calculated as the free base. Recording was started 30 minutes after injection to insure adequate drug absorption for peak activity.
Drug-induced EEG changes were determined by comparing the post-treatment data to the pre-treatment control in the same animal. Statistical analysis was performed on change from control, in instrument counts, using multiple Student-t-paired-comparison test with P≦0.05 (Table 2). However, for clarity data are also presented as percent change from control (Figures 3, 4 and 5).
The data in Table 2 are drug-induced changes resulting from the minimum and higher doses of each compound required to elicit the EEG profile characteristic of that particular drug.

rabbit cortex = experiment: Quantitative EEG, rabbit cortex, intravenous administration; assay type: in vivo, rabbits; details: for group percent change in electrical energy from pre-drug control, Δ band / mean change ± S.E. in electrical energy from pre-drug control, Δ band: Δ = 0.5-3.5 Hz; for group percent change in electrical energy from pre-drug control, α band / mean change ± S.E. in electrical energy from pre-drug control, α band: α= 7-13 Hz; for group percent change in electrical energy from pre-drug control, β band / mean change ± S.E. in electrical energy from pre-drug control, β band: β= 13-25 Hz; for group percent change in electrical energy from pre-drug control, γ band / mean change ± S.E. in electrical energy from pre-drug control, γ band: γ= 25-40 Hz; for group percent change in electrical energy from pre-drug control, θ band / mean change ± S.E. in electrical energy from pre-drug control, θ band: θ= 3.5-7.0 Hz
Protocol: At least 2 weeks were allowed for recovery before beginning experimentation.
Groups of four animals each were individually restrained and connected to an EEG amplifier and frequency analyzer. The EEG of each animal was recorded on a separate channel. The instrumentation filtered each channel of EEG analog data into five distinct frequency bands: Δ=0.5-3.5 Hz, ϑ=3.5-7.0 Hz, α=7-13 Hz, β=13-25 Hz and γ=25-40 Hz. The EEG analyzer then integrated the filtered waveforms and sent pulses to an associated computer at a rate proportional to the electrical energy of each band. Thus, one computer print-out provided a cortical EEG profile for the entire group of four rabbits.
Data from a one-hour recording period were collected in four 15-minute periods, which provided additional information concerning both onset and time of peak effect of drug activity. However, in this report only the mean activity of the four data collection periods was considered since onset of drug activity was immediate and duration of action was at least one hour for all drugs studied. Drug-induced EEG changes were determined by comparing the post-treatment print-out to the pretreatment control in the same animal and statistical analysis was performed on change from control, in counts, using multiple Student-t paired-comparison tests with p≦0.05 (Table 1). However, for clarity data are also presented as percent change from control (Figures 1 and 2).
All drugs were administered intravenously in saline solution as their respective salts and all dosage calculations were based on the free base. Recording was started immediately after injection and animals were not used more often than once per week. Initial doses were reduced geometrically until a no-effect dose was determined for each drug. However, only the "no-effect" data and the data generated from the next higher dose are presented in this report since the shape of the EEG profile is not dose-related, as opposed to the magnitude of the response which is dose-related.

[2] = rabbit cortex, 0.125 mg/kg free base i.v.
[3] = rabbit cortex, 0.25 mg/kg free base i.v.

CN(C)CCCN1c2ccccc2Sc2ccc(Cl)cc21 [Chlorpromazine HCl, chlorpromazine]
minimal effective dose ([1]; Felis catus, sc, fronto-occipital cat cortex EEG, dose of free base, read-out: the minimum dose required to produce the EEG profile characteristic of that particular drug): 1 mg/kg
the no-effect dose ([1]; fronto-occipital cat cortex EEG, dose of free base): 0.5† mg/kg, s.c.
group percent change in electrical energy from pre-drug control, Δ band ([1]; 0.5 mg/kg free base s.c.): +6%
mean change ± S.E. in electrical energy from pre-drug control, Δ band ([1]; 0.5 mg/kg free base s.c.): +14 ± 23 instrument counts
group percent change in electrical energy from pre-drug control, Δ band ([1]; 1.0 mg/kg free base s.c.): +25%
mean change ± S.E. in electrical energy from pre-drug control, Δ band ([1]; 1.0 mg/kg free base s.c.): +46 ± 16 instrument counts
group percent change in electrical energy from pre-drug control, Δ band ([1]; 4.0 mg/kg free base s.c.): +56%
mean change ± S.E. in electrical energy from pre-drug control, Δ band ([1]; 4.0 mg/kg free base s.c.): +83 ± 13 instrument counts
group percent change in electrical energy from pre-drug control, α band ([1]; 0.5 mg/kg free base s.c.): +19%
mean change ± S.E. in electrical energy from pre-drug control, α band ([1]; 0.5 mg/kg free base s.c.): +23 ± 14 instrument counts
group percent change in electrical energy from pre-drug control, α band ([1]; 1.0 mg/kg free base s.c.): +25%
mean change ± S.E. in electrical energy from pre-drug control, α band ([1]; 1.0 mg/kg free base s.c.): +33 ± 8 instrument counts
group percent change in electrical energy from pre-drug control, α band ([1]; 4.0 mg/kg free base s.c.): +38%
mean change ± S.E. in electrical energy from pre-drug control, α band ([1]; 4.0 mg/kg free base s.c.): +33 ± 2 instrument counts
group percent change in electrical energy from pre-drug control, β band ([1]; 0.5 mg/kg free base s.c.): +6%
mean change ± S.E. in electrical energy from pre-drug control, β band ([1]; 0.5 mg/kg free base s.c.): +6 ± 5 instrument counts
group percent change in electrical energy from pre-drug control, β band ([1]; 1.0 mg/kg free base s.c.): +9%
mean change ± S.E. in electrical energy from pre-drug control, β band ([1]; 1.0 mg/kg free base s.c.): +13 ± 6 instrument counts
group percent change in electrical energy from pre-drug control, β band ([1]; 4.0 mg/kg free base s.c.): -3%
mean change ± S.E. in electrical energy from pre-drug control, β band ([1]; 4.0 mg/kg free base s.c.): -3 ± 5 instrument counts
group percent change in electrical energy from pre-drug control, γ band ([1]; 0.5 mg/kg free base s.c.): -13%
mean change ± S.E. in electrical energy from pre-drug control, γ band ([1]; 0.5 mg/kg free base s.c.): -10 ± 4 instrument counts
group percent change in electrical energy from pre-drug control, γ band ([1]; 1.0 mg/kg free base s.c.): -10%
mean change ± S.E. in electrical energy from pre-drug control, γ band ([1]; 1.0 mg/kg free base s.c.): -10 ± 5 instrument counts
group percent change in electrical energy from pre-drug control, γ band ([1]; 4.0 mg/kg free base s.c.): -14%
mean change ± S.E. in electrical energy from pre-drug control, γ band ([1]; 4.0 mg/kg free base s.c.): -11 ± 3 instrument counts
group percent change in electrical energy from pre-drug control, θ band ([1]; 0.5 mg/kg free base s.c.): +15%
mean change ± S.E. in electrical energy from pre-drug control, θ band ([1]; 0.5 mg/kg free base s.c.): +22 ± 15 instrument counts
group percent change in electrical energy from pre-drug control, θ band ([1]; 1.0 mg/kg free base s.c.): +20%
mean change ± S.E. in electrical energy from pre-drug control, θ band ([1]; 1.0 mg/kg free base s.c.): +28 ± 10 instrument counts
group percent change in electrical energy from pre-drug control, θ band ([1]; 4.0 mg/kg free base s.c.): +53%
minimal effective dose (rabbit cortex; Oryctolagus cuniculus, iv, rabbit cortex EEG, dose of free base, read-out: the minimum dose required to produce the EEG profile characteristic of that particular drug): 0.25 mg/kg
relative potency by comparing minimal doses required to elicit EEG profiles (rabbit cortex; rabbit cortex EEG, i.v.): approximately twice as potent as buspirone
the no-effect dose (rabbit cortex; rabbit cortex EEG, dose of free base): 0.125† mg/kg, i.v.
EEG profile (rabbit cortex; rabbit cortex, i.v.): completely different from that produced by stimulant drugs
group percent change in electrical energy from pre-drug control, Δ band (rabbit cortex; [2]): +15%
mean change ± S.E. in electrical energy from pre-drug control, Δ band (rabbit cortex; [2]): +30 ± 17 instrument counts
group percent change in electrical energy from pre-drug control, Δ band (rabbit cortex; [3]): +75%
mean change ± S.E. in electrical energy from pre-drug control, Δ band (rabbit cortex; [3]): +198 ± 51 instrument counts
group percent change in electrical energy from pre-drug control, α band (rabbit cortex; [2]): +14%
mean change ± S.E. in electrical energy from pre-drug control, α band (rabbit cortex; [2]): +21 ± 19 instrument counts
group percent change in electrical energy from pre-drug control, α band (rabbit cortex; [3]): +42%
mean change ± S.E. in electrical energy from pre-drug control, α band (rabbit cortex; [3]): +65 ± 18 instrument counts
group percent change in electrical energy from pre-drug control, β band (rabbit cortex; [2]): +10%
mean change ± S.E. in electrical energy from pre-drug control, β band (rabbit cortex; [2]): +12 ± 11 instrument counts
group percent change in electrical energy from pre-drug control, β band (rabbit cortex; [3]): +30%
mean change ± S.E. in electrical energy from pre-drug control, β band (rabbit cortex; [3]): +42 ± 13 instrument counts
group percent change in electrical energy from pre-drug control, γ band (rabbit cortex; [2]): -3%
mean change ± S.E. in electrical energy from pre-drug control, γ band (rabbit cortex; [2]): -3 ± 2 instrument counts
group percent change in electrical energy from pre-drug control, γ band (rabbit cortex; [3]): +5%
mean change ± S.E. in electrical energy from pre-drug control, γ band (rabbit cortex; [3]): +4 ± 1 instrument counts
group percent change in electrical energy from pre-drug control, θ band (rabbit cortex; [2]): +13%
mean change ± S.E. in electrical energy from pre-drug control, θ band (rabbit cortex; [2]): +20 ± 17 instrument counts
group percent change in electrical energy from pre-drug control, θ band (rabbit cortex; [3]): +33%
mean change ± S.E. in electrical energy from pre-drug control, θ band (rabbit cortex; [3]): +65 ± 22 instrument counts
